Laboratory results: ChEMBL document CHEMBL4433242, “Rapalogs Potential as Practical Alternatives to Rapamycin” (ACS Med Chem Lett, 2019)

Molecular target: Serine/threonine-protein kinase mTOR (Mus musculus, UniProt Q9JLN9)
Assay: Inhibition of mTOR in mouse TSC1-/- MEF cells assessed as inhibition of S6 Ser240/244 phosphorylation incubated for 2 hrs by fluorescence based assay
Type: cell-based

Row | Compound | IC50
1 | CO[C@@H]1C[C@H](C[C@@H](C)[C@@H]2CC[C@H](C)/C=C(\C)[C@@H](O)[C@@H](OC)C(=O)[C@H](C)C[C@H](C)/C=C/C=C/C=C(\C)C(N3CCS3(=O)=O)C[C@@H]3CC[C@@H](C)[C@@](O)(O3)C(=O)C(=O)N3CCCC[C@H]3C(=O)O2)CC[C@H]1O (stereo not given in full) | 0.17 nM
2 | CO[C@@H]1C[C@H](C[C@@H](C)[C@@H]2CC[C@H](C)/C=C(\C)[C@@H](O)[C@@H](OC)C(=O)[C@H](C)C[C@H](C)/C=C/C=C/C=C(\C)[C@H](N3CCCS3(=O)=O)C[C@@H]3CC[C@@H](C)[C@@](O)(O3)C(=O)C(=O)N3CCCC[C@H]3C(=O)O2)CC[C@H]1O | 0.274 nM
3 | CO[C@@H]1C[C@H](C[C@@H](C)[C@@H]2CC[C@H](C)/C=C(\C)[C@@H](O)[C@@H](OC)C(=O)[C@H](C)C[C@H](C)/C=C/C=C/C=C(\C)C(N3CCS3(=O)=O)C[C@@H]3CC[C@@H](C)[C@@](O)(O3)C(=O)C(=O)N3CCCC[C@H]3C(=O)O2)CC[C@@H]1n1cnnn1 (stereo not given in full) | 0.374 nM
4 | CO[C@@H]1C[C@H](C[C@@H](C)[C@@H]2CC[C@H](C)/C=C(\C)[C@@H](O)[C@@H](OC)C(=O)[C@H](C)C[C@H](C)/C=C/C=C/C=C(\C)C(N3CCN(CCO)C3=O)C[C@@H]3CC[C@@H](C)[C@@](O)(O3)C(=O)C(=O)N3CCCC[C@H]3C(=O)O2)CC[C@H]1O (stereo not given in full) | 153 nM
5 | CO[C@@H]1C[C@H](C[C@@H](C)[C@@H]2CC[C@H](C)/C=C(\C)[C@@H](O)[C@@H](OC)C(=O)[C@H](C)C[C@H](C)/C=C/C=C/C=C(\C)C(N3CCCS3(=O)=O)C[C@@H]3CC[C@@H](C)[C@@](O)(O3)C(=O)C(=O)N3CCCC[C@H]3C(=O)O2)CC[C@H]1OP(C)(C)=O (stereo not given in full) | 3.2 nM
